Experimental data published in publication PMC8116058, “De novo macrocyclic peptides dissect energy coupling of a heterodimeric ABC transporter by multimode allosteric inhibition” (eLife, 2021).
Positions of bridges follow the written chain, without caps; N, C: chain ends. Non-standard residues stand in square brackets, D forms with d. Residues, ends and D or L forms follow the SMILES beside them. *: point of attachment. 5FAM = O=C1OC2(c3ccc(O)cc3Oc3cc(O)ccc32)c2ccc(C(=O)*)cc21; βAla = NCCC(=O)O

How the values were obtained:
[1] = system: TmrAB; test: Competition of C4F peptide binding by CP^Bs (fluorescence anisotropy); parameters: species or system Thermus thermophilus; settings: C4F 50 nM + TmrAB 4 µM + competitor (CP^B 6 µM or C4^ATTO655 10 µM)
Source text: To elucidate the mechanistic basis for the inhibition of ATP hydrolysis and substrate transport, we investigated the effects of CPs on substrate binding. In the first approach, fluorescent CP^Fs were used as reporters in fluorescence polarization. […] In addition, we examined the impact of CP^Bs on ATP binding to TmrAB by scintillation proximity assays (SPA) (Figure 4C). […] Taken together, CPs are high-affinity allosteric inhibitors of TmrAB that leave ATP binding and substrate interaction largely unaffected, while impairing ATP hydrolysis and substrate translocation across the membrane.
Figure 4. […] (A) CP^Fs binding TmrAB is not affected by substrate peptide binding. […] For competition, C4^ATTO655 peptide (2 µM) or R9LQK peptide (200 µM) were added. (B) Binding of C4F peptide is not affected by CP^Bs. C4F peptides (50 nM) were mixed with TmrAB (4 µM), and fluorescence anisotropy was monitored as described in (A). For competition, C4^ATTO655 (10 µM) or CP^Bs (6 µM) were added. […] TmrAB (0.2 µM) were immobilized on SPA beads and incubated with ATP (3 μM, traced with ^3H-ATP) in the presence and absence of CP^Bs (1 µM each) for 30 min on ice. ATP binding was monitored by SPA. Background values were determined after releasing TmrAB complexes from the beads by adding imidazole (200 mM). The background signal in the absence of CP^Bs was set to 0 cpm. […] As this is an equilibrium experiment, this can be rationalized by the fact that CP13 stabilizes the ATP-bound OF conformer. Figure 4—source data 1. Source data for Figure 4.
To determine equilibrium binding constants, CP^Fs (50 nM) were incubated with increasing concentrations of TmrAB-containing or empty liposomes. To probe the conformational selectivity, CP^Fs (50 nM) were mixed with detergent-solubilized IF TmrAB or OF TmrA^EQB. Before, OF TmrA^EQB was nucleotide-trapped by incubation with ATP (1 mM) and MgCl2 (3 mM) in the absence of CP^Fs for 5 min at 45°C. […] For peptide competition studies, RRYC^fluoresceinKSTEL (C4F, 50 nM) were incubated with detergent-solubilized TmrAB (4 µM), CP^Bs (6 µM), or C4^ATTO655 (10 µM). […] Fluorescence anisotropy was analyzed at λex/em of 485/520 nm using a microplate reader (CLARIOstar, BMG LABTECH). Fluorescence anisotropy was calculated using:(1) r=I||−I⊥/I||+2⋅I⊥ with I||: parallel intensity and I⊥: perpendicular intensity. Binding of CP^Fs were fitted by a one-site binding model (Langmuir 1:1) using:(2) Y=Bmax∙[L]/KD+[L] with Y: binding, Bmax: maximal binding, KD: equilibrium dissociation constant, and [L]: ligand concentration. Data represent mean ± SD from three experiments.

[2] = system: wild-type TmrAB in liposomes; test: Single-liposome flow cytometry transport assay; type: biochemical, Thermus thermophilus; settings: for Peptides/liposome, time course: corrected by ADP background; for Peptides/liposome, two consecutive transport cycles: ADP background corrected
Procedure: To investigate whether an IF-to-OF transition and conformational arrest by CP13^F or CP14^F can still result in a productive substrate translocation, we followed peptide transport by wild-type TmrAB by single liposome-based flow cytometry (Figure 6A). […] CPs block multiple-turnover transport monitored by quantitative flow cytometry. (A) Single turnover by IF-to-OF switch monitored by single-liposome flow cytometry. […] Transport reactions were stopped by the addition of EDTA (10 mM). 100,000 proteoliposomes were analyzed by flow cytometry monitoring fluorescein and ATTO655 intensities. […] (C, D) Slowdown of multiple-turnover substrate transport. […] Transported peptides per liposomes were evaluated and corrected by ADP background levels as described in (B). Transport kinetics were fitted monoexponentially. […] (E) Two consecutive transport cycles. […] Transported peptides per liposome were evaluated as described in (B) and corrected by background levels in the presence of ADP. […] Figure 6-source data 1. Source data for Figure 6. Figure 6-figure supplement 1. Linear regression of quantitative flow cytometry analysis. (A) Gating strategy. Liposomes were selected according to side and forward scatter areas. Single liposomes were gated based on the height of forward scatter correlated to the area of forward scatter. […] Detergent was removed, and liposomes were extensively washed by centrifugation. […] Equal concentrations of fluorescein served as loading control (right). (C) Linear regression. […] Mean values ± SD (n = 3) are shown. Figure 6-figure supplement 1-source data 1. Source Data for Figure 6-figure supplement 1. [drawing 5] […] To confirm the conformational arrest of wild-type TmrAB by CP13^F and the slow turnover in the presence of CP14^F, we examined two successive cycles of conformational transitions by flow cytometry. […] Both steps were repeated to yield two consecutive cycles of conformational transitions. […] Taken together, the macrocyclic peptides CP13 and CP14 stabilize a pre-hydrolysis state, thus allowing a single-turnover translocation along the IF-to-OF switch. […] Transport reactions were stopped by adding EDTA (10 mM). […] For regression analysis, liposomes were loaded with increasing amounts of peptides to convert the fluorescence intensities into the number of peptides per liposome ([Stefan et al., 2020]). […] Equal amounts of carboxyfluorescein (Sigma-Aldrich) served as loading control. Detergent was removed by adding SM-2 Bio-beads (Bio-Rad) as detailed above. Liposomes were harvested for 30 min at 270,000 g and washed three times by centrifugation. Generally, 20,000-100,000 proteoliposomes were selected according to sideward and forward scatter areas. Single events were selected based on the height of forward scatter plotted against the area of forward scatter. […] Data represent mean ± SD from three experiments.

SMILES: CC(C)[C@@H]1NC(=O)[C@H](Cc2ccccc2)NC(=O)[C@@H]2CCCN2C(=O)[C@H](CC(N)=O)NC(=O)[C@H](Cc2c[nH]c3ccccc23)NC(=O)[C@H](C(C)C)NC(=O)[C@H](Cc2ccc(O)cc2)NC(=O)[C@H](Cc2ccccc2)NC(=O)[C@@H](Cc2ccc(O)cc2)NC(=O)CSC[C@@H](C(=O)NCC(=O)N[C@@H](CO)C(=O)NCCC(=O)NCCC(=O)N[C@@H](CCCNC(=N)N)C(=O)N[C@@H](CCCCNC(=O)c2ccc3c(c2)C(=O)OC32c3ccc(O)cc3Oc3cc(O)ccc32)C(N)=O)NC(=O)[C@H](CCCCN)NC(=O)[C@H](Cc2ccccc2)NC1=O [CP14] ({CH2CO}-[dY]FYVWNPFVFKCGS[βAla][βAla]RK(5FAM)-NH2; thioether N-12; C-terminus assumed)
- Bound C4F peptide, fluorescence anisotropy [1]: 0.136
- Peptides/liposome, time course ([2]; 1 min at 45°C, CP^F 1 µM, C4^ATTO655 1 µM): 0.03 Peptides/liposome
- Mean fluorescence intensity * 10^3, time course ([2]; 1 min at 45°C, CP^F 1 µM, C4^ATTO655 1 µM, without CP 2.29): 0.00 * 10^3
- Peptides/liposome, time course ([2]; 3 min at 45°C, CP^F 1 µM, C4^ATTO655 1 µM): 6.21 Peptides/liposome
- Mean fluorescence intensity * 10^3, time course ([2]; 3 min at 45°C, CP^F 1 µM, C4^ATTO655 1 µM, without CP 10.49): 0.43 * 10^3
- Peptide transport in two successive IF-to-OF cycles ([2]; 5 min 45°C / 60 min 4°C, repeated): peptide transport was detected in both IF-to-OF switches
- Peptides/liposome, time course ([2]; 5 min at 45°C, CP^F 1 µM, C4^ATTO655 1 µM): 14.91 Peptides/liposome
- Mean fluorescence intensity * 10^3, time course ([2]; 5 min at 45°C, CP^F 1 µM, C4^ATTO655 1 µM, without CP 18.11): 1.02 * 10^3
- Peptides/liposome, time course ([2]; 10 min at 45°C, CP^F 1 µM, C4^ATTO655 1 µM): 24.30 Peptides/liposome
- Mean fluorescence intensity * 10^3, time course ([2]; 10 min at 45°C, CP^F 1 µM, C4^ATTO655 1 µM, without CP 30.27): 1.67 * 10^3
- Peptides/liposome, time course ([2]; 20 min at 45°C, CP^F 1 µM, C4^ATTO655 1 µM): 38.29 Peptides/liposome
- Mean fluorescence intensity * 10^3, time course ([2]; 20 min at 45°C, CP^F 1 µM, C4^ATTO655 1 µM, without CP 40.72): 2.63 * 10^3
- Peptides/liposome, time course ([2]; 40 min at 45°C, CP^F 1 µM, C4^ATTO655 1 µM): 48.57 Peptides/liposome
- Mean fluorescence intensity * 10^3, time course ([2]; 40 min at 45°C, CP^F 1 µM, C4^ATTO655 1 µM, without CP 51.44): 3.34 * 10^3
- C4^ATTO655 peptides per liposome transported along a single IF-to-OF switch ([2]; CP^F 1 µM, 5 min 45°C, ~30 transport-competent TmrAB per liposome): ~ 30 peptides per liposome
- Transported C4^ATTO655, Peptides/liposome ([2]; TmrAB 0.4 µM, C4^ATTO655 1 µM, ATP 3 mM, CP^F 1 µM, 5 min 45°C, ATP without CP 84.57, ADP 3.52): 38.81 Peptides/liposome
- Peptide transport rate compared to control without CP^Fs ([2]; period of 40 min at 45°C): drastically reduced the peptide transport rate
- Turnover of wild-type TmrAB over long-term incubation ([2]; period of 40 min at 45°C): slow turnover
- Peptides/liposome, two consecutive transport cycles ([2]; time 0 min): 0.00 Peptides/liposome
- Peptides/liposome, two consecutive transport cycles ([2]; time 5 min (after first 5 min at 45°C)): 36.27 Peptides/liposome
- Peptides/liposome, two consecutive transport cycles ([2]; time 65 min (after 60 min at 4°C)): 37.68 Peptides/liposome
- Peptides/liposome, two consecutive transport cycles ([2]; time 70 min (after second 5 min at 45°C)): 44.92 Peptides/liposome
- Peptides/liposome, two consecutive transport cycles ([2]; time 130 min (after second 60 min at 4°C)): 48.07 Peptides/liposome
